The assay addresses human NEP (Homo sapiens (Human), UniProt P08473). The assay is described as follows: In vitro enzyme inhibition assay at human NEP. The note with it: recombinant human NEP, fluorogenic peptide substrate, 37° C.; for Ki: pKi.

Each structure is given as a SMILES string.

This passage reports pKi and Ki results from US9593110B2, “Neprilysin inhibitors” (Theravence Biopharma R&D IP, LLC, priority 2014, dated 2017).

Sequence of human NEP (P08473 52-750): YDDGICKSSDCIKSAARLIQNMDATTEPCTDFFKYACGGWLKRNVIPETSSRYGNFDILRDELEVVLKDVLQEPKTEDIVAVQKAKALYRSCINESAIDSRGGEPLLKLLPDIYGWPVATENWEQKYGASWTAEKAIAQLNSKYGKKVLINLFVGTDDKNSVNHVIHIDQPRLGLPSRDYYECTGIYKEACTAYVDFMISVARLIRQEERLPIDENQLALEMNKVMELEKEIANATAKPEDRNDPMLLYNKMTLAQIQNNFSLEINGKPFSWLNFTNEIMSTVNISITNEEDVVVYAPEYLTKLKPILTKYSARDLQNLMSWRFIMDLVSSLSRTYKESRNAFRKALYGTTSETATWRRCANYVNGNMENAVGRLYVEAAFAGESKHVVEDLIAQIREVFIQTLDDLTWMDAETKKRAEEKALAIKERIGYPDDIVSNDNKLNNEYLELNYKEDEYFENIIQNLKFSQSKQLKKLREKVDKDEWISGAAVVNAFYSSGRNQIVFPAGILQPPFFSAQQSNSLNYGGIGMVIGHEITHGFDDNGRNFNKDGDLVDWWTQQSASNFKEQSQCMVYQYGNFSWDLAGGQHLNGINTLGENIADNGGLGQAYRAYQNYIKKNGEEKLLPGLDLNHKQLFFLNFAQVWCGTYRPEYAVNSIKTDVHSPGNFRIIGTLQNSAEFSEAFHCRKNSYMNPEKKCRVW

In the case of `CCOc1nc(C(=O)N[C@H](Cc2ccc(-c3cc(Cl)ccc3F)cc2)C[C@@H](NC(=O)OC)C(=O)O)co1` [Example 30-7, (2R,4R)-5-(5′-Chloro-2′-fluorobiphenyl-4-yl)-4-[(2-ethoxy-oxazole-4-carbonyl)amino]-2-methoxycarbonylaminopentanoic acid], the pKi entry is on record as “≧9.0”.
Still for that read-out and setting: in the case of `NCC(=O)N[C@H](C[C@@H](Cc1ccc(-c2cc(Cl)ccc2F)cc1)NC(=O)c1c[nH]nn1)C(=O)O` [Example 33, (2R,4R)-2-(2-Aminoacetylamino)-5-(5′-chloro-2′-fluoro-biphenyl-4-yl)-4-[(1H-[1,2,3]triazole-4-carbonyl)amino]pentanoic Acid] it was “≧9.0”.
For `O=C(N[C@H](Cc1ccc(-c2cc(Cl)ccc2F)cc1)CC(C(=O)O)C1CCNCC1)c1cnn[nH]1` (stereo in doubt) [Example 59, (S)-5-(5′-Chloro-2′-fluorobiphenyl-4-yl)-2-piperidin-4-yl-4-[(3H-[1,2,3]triazole-4-carbonyl)amino]pentanoic Acid], the Ki was at most 1 nM.
Consider `COCc1cc(C(=O)N[C@H](Cc2ccc(-c3cc(Cl)ccc3F)cc2Cl)C[C@H](N)C(=O)O)no1` [Example 18-8, (2S,4R)-2-Amino-5-(3,5′-dichloro-2′-fluorobiphenyl-4-yl)-4-[(5-methoxymethylisoxazole-3-carbonyl)amino]pentanoic acid], for which the pKi entry was “≧9.0”.
Still for that read-out and setting: in the case of `N[C@H](C[C@@H](Cc1ccc(-c2cc(Cl)ccc2F)cc1)NC(=O)c1ncccn1)C(=O)O` [Example 16-29, (2R,4R)-2-Amino-5-(5′-chloro-2′-fluorobiphenyl-4-yl)-4-[(pyrimidine-2-carbonyl)-amino]pentanoic acid] it was “≧9.0”.
With `O=C(N[C@H](Cc1ccc(-c2cc(Cl)ccc2F)cc1)C[C@@H](NC(=O)[C@@H]1CCCN1)C(=O)O)c1cnn[nH]1` [Example 55, (2R,4R)-5-(5′-Chloro-2′-fluorobiphenyl-4-yl)-2-[((S)-pyrrolidine-2-carbonyl)amino]-4-[(3H-[1,2,3]triazole-4-carbonyl)amino]pentanoic Acid], the inhibition constant Ki lay within 3.16 to 10 nM.
Same read-out and setting: to `CCOC[C@H](C[C@@H](Cc1ccc(-c2cc(Cl)ccc2F)cc1)NC(=O)c1coc(C2CC2)n1)C(=O)O` [Example 7-8, (2S,4S)-5-(5′-Chloro-2′-fluorobiphenyl-4-yl)-4-[(2-cyclopropyloxazole-4-carbonyl)amino]-2-ethoxymethylpentanoic acid] belongs 1.26 to 3.16 nM; to `N#CC[C@H](C[C@@H](Cc1ccc(-c2cc(Cl)ccc2F)cc1)NC(=O)c1c[nH]nn1)C(=O)O` [Example 51, (2S,4S)-5-(5′-chloro-2′-fluorobiphenyl-4-yl)-2-cyanomethyl-4-[(3H-[1,2,3]triazole-4-carbonyl)amino]pentanoic acid], 1.26 to 3.16 nM.
Turning to `CC(C)[C@H](N)C(=O)N[C@H](C[C@@H](Cc1ccc(-c2cc(Cl)ccc2F)cc1)NC(=O)c1cnn[nH]1)C(=O)O` [Example 39-1, (2R,4R)-2-((S)-2-Amino-3-methylbutyrylamino)-5-(5′-chloro-2′-fluorobiphenyl-4-yl)-4-[(3H-[1,2,3]triazole-4-carbonyl)amino]pentanoic acid], the pKi result is given as “≧9.0”.
Turning to `CC1(O)CN(C[C@@H](C[C@@H](Cc2ccc(-c3cc(Cl)ccc3F)cc2)NC(=O)c2c[nH]nn2)C(=O)O)C1` [Example 101c, (2R,4S)-5-(5′-Chloro-2′-fluorobiphenyl-4-yl)-2-(3-hydroxy-3-methylazetidin-1-ylmethyl)-4-[(1H-[1,2,3]triazole-4-carbonyl)amino]pentanoic Acid], the inhibition constant Ki was in the range of 1.26 to 3.16 nM.
Same read-out and setting: to `O=C(N[C@H](Cc1ccc(-c2cc(Cl)ccc2F)cc1)CC(C(=O)O)c1ccsc1)c1cnn[nH]1` (stereo in doubt) [Example 79, (S)-5-(5′-Chloro-2′-fluorobiphenyl-4-yl)-2-thiophen-3-yl-4-[(3H-[1,2,3]triazole-4-carbonyl)amino]pentanoic Acid] belongs 1.26 to 3.16 nM.
Take `COC[C@H](C[C@@H](Cc1ccc(-c2cc(Cl)ccc2F)cc1)NC(=O)c1cc(O)no1)C(=O)O` [Example 2-5, (2S,4S)-5-(5′-Chloro-2′-fluorobiphenyl-4-yl)-4-[(3-hydroxyisoxazole-5-carbonyl)-amino]-2-methoxymethylpentanoic acid]: the pKi entry is reported as “≧9.0”.
For the molecule `O=C(N[C@H](Cc1ccc(-c2cc(Cl)ccc2F)cc1)C[C@@H](Cn1ccnn1)C(=O)O)c1cnn[nH]1` [Example 61a, (2S,4S)-5-(5′-Chloro-2′-fluorobiphenyl-4-yl)-4-[(3H-[1,2,3]triazole-4-carbonyl)amino]-2-[1,2,3]triazol-1-ylmethylpentanoic Acid], the Ki is at most 1 nM.
Same read-out and setting: in the case of `O=C(N[C@H](Cc1ccc(-c2cc(Cl)ccc2F)cc1)C[C@@H](Cn1nccn1)C(=O)O)c1cnn[nH]1` [Example 61b, (2S,4S)-5-(5′-Chloro-2′-fluorobiphenyl-4-yl)-4-[(3H-[1,2,3]triazole-4-carbonyl)amino]-2-[1,2,3]triazol-2-ylmethylpentanoic Acid] it was at most 1 nM.
For the molecule `CC1(O)CN(C[C@H](C[C@@H](Cc2ccc(-c3cc(Cl)ccc3F)cc2)NC(=O)c2c[nH]nn2)C(=O)O)C1` [Example 101b, (2S,4S)-5-(5′-Chloro-2′-fluorobiphenyl-4-yl)-2-(3-hydroxy-3-methylazetidin-1-ylmethyl)-4-[(1H-[1,2,3]triazole-4-carbonyl)amino]pentanoic Acid], the inhibition constant (Ki) is at most 1 nM.
In the case of `N[C@H](C[C@@H](Cc1ccc(-c2cc(Cl)ccc2F)cc1)NC(=O)c1nn(-c2ccccc2)c(=O)[nH]1)C(=O)O` [Example 16-35, (2R,4R)-2-Amino-5-(5′-chloro-2′-fluorobiphenyl-4-yl)-4-[(5-oxo-1-phenyl-4,5-dihydro-1H-[1,2,4]triazole-3-carbonyl)amino]p entanoic acid], the pKi result is listed as “≧9.0”.
Same read-out and setting: to `COC[C@H](C[C@@H](Cc1ccc(-c2cccc(Cl)c2)cc1)NC(=O)c1n[nH]c(C(F)(F)F)n1)C(=O)O` [Example 4-1, (2S,4S)-5-(3′-Chlorobiphenyl-4-yl)-2-methoxymethyl-4-[(5-trifluoromethyl-1H-[1,2,4]triazole-3-carbonyl)amino]pentanoic acid] belongs “≧9.0”.
The same measure, in the same setting: in the case of `CCCc1nc(C(=O)N[C@H](Cc2ccc(-c3cc(Cl)ccc3F)cc2Cl)C[C@@H](N)C(=O)O)co1` [Example 18-2, (2R,4R)-2-Amino-5-(3,5′-dichloro-2′-fluorobiphenyl-4-yl)-4-[(2-propyloxazole-4-carbonyl)amino]pentanoic acid] it was “≧9.0”.
As to `O=C(N[C@H](Cc1ccc(-c2cc(Cl)ccc2F)cc1)CC(C(=O)O)c1cccnc1)c1cnn[nH]1` (single isomer, unassigned) [Example 77a], the inhibition constant Ki was 3.16 to 10 nM.
Consider `CC(C)c1coc(C(=O)N[C@H](Cc2ccc(-c3cc(Cl)ccc3F)cc2)C[C@@H](NC(=O)[C@H](N)CO)C(=O)O)n1` [Example 42-1, (2R,4R)-2-((R)-2-Amino-3-hydroxypropionylamino)-5-(5′-chloro-2′-fluorobiphenyl-4-yl)-4-[(4-isopropyloxazole-2-carbonyl)-amino]pentanoic Acid], for which the Ki fell in the range of 1.26 to 3.16 nM.
Take `COC(=O)N[C@H](C[C@@H](Cc1ccc(-c2cc(Cl)ccc2F)cc1)NC(=O)c1coc(C2CC2)n1)C(=O)O` [Example 30-5, (2R,4R)-5-(5′-Chloro-2′-fluorobiphenyl-4-yl)-4-[(2-cyclopropyl-oxazole-4-carbonyl)amino]-2-methoxycarbonylaminopentanoic acid]: the pKi entry is recorded as “≧9.0”.
Same read-out and setting: in the case of `NCCCCCC(=O)N[C@H](C[C@@H](Cc1ccc(-c2cc(Cl)ccc2F)cc1)NC(=O)c1c[nH]nn1)C(=O)O` [Example 70, (2R,4R)-2-(6-Aminohexanoylamino)-5-(5′-chloro-2′-fluorobiphenyl-4-yl)-4-[(1H-[1,2,3]triazole-4-carbonyl)amino]pentanoic Acid] it was “≧9.0”.
Turning to `CC(=O)N[C@H](C[C@@H](Cc1ccc(-c2ccccc2F)cc1)NC(=O)c1c[nH]nn1)C(=O)O` [Example 25, (2R,4R)-2-Acetylamino-5-(2′-fluorobiphenyl-4-yl)-4-[(1H-[1,2,3]triazole-4-carbonyl)amino]pentanoic Acid], the inhibition constant Ki lay in the range of 3.16 to 10 nM.
The same measure, in the same setting: in the case of `CCOc1oc(C(=O)N[C@H](Cc2ccc(-c3cc(Cl)ccc3F)cc2)C[C@@H](NC(=O)OC)C(=O)O)nc1C` [Example 30-8, (2R,4R)-5-(5′-Chloro-2′-fluorobiphenyl-4-yl)-4-[(5-ethoxy-4-methyl-oxazole-2-carbonyl)amino]-2-methoxycarbonylaminopentanoic acid] it was 1.26 to 3.16 nM; in that of `CCCc1cc(C(=O)N[C@H](Cc2ccc(-c3cc(Cl)ccc3F)cc2)C[C@@H](N)C(=O)O)no1` [Example 16-2, (2R,4R)-2-Amino-5-(5′-chloro-2′-fluorobiphenyl-4-yl)-4-[(5-propylisoxazole-3-carbonyl)-amino]pentanoic acid], 1.26 to 3.16 nM; in that of `O=C(N[C@H](Cc1ccc(-c2cc(Cl)ccc2F)cc1)C[C@@H](CN1CC(F)(F)C1)C(=O)O)c1cnn[nH]1` [Example 90b, (2S,4S)-5-(5′-Chloro-2′-fluorobiphenyl-4-yl)-2-(3,3-difluoroazetidin-1-ylmethyl)-4-[(3H-[1,2,3]triazole-4-carbonyl)amino]pentanoic Acid], at most 1 nM.
The same measure, in the same setting: in the case of `COc1cnc(C(=O)N[C@H](Cc2ccc(-c3cc(Cl)ccc3F)cc2Cl)C[C@H](N)C(=O)O)o1` [Example 18-12, (2S,4R)-2-Amino-5-(3,5′-dichloro-2′-fluoro-biphenyl-4-yl)-4-[(5-methoxyoxazole-2-carbonyl)amino]pentanoic acid] it was 3.16 to 10 nM.
As to `O=C(N[C@H](Cc1ccc(-c2cc(Cl)ccc2F)cc1)C[C@@H](Cn1ccnc1)C(=O)O)c1cnn[nH]1` [Example 62, (2S,4S)-5-(5′-Chloro-2′-fluorobiphenyl-4-yl)-2-imidazol-1-ylmethyl-4-[(3H-[1,2,3]triazole-4-carbonyl)amino]pentanoic Acid], the pKi entry is listed as “≧9.0”.
For the molecule `O=C(N[C@H](Cc1ccc(-c2cc(Cl)ccc2F)cc1)C[C@@H](CN1CC(F)C1)C(=O)O)c1cnn[nH]1` [Example 91b, (2S,4S)-5-(5′-Chloro-2′-fluorobiphenyl-4-yl)-2-(3-fluoroazetidin-1-ylmethyl)-4-[(3H-[1,2,3]triazole-4-carbonyl)amino]pentanoic Acid], the inhibition constant (Ki) was at most 1 nM.

By Ki is commonly meant a dissociation constant, usually derived from enzyme kinetics or from competition with a known ligand.
